Structures can show the parent of a compound that is named as a salt.
What was measured:
guinea pig hearts = assay: Optical mapping of voltage and Ca2+ in Langendorff-perfused hearts after daily intraperitoneal injection; conditions: same dosing; for AP and CaT durations compared to control hearts: recovery to 90% of baseline, Figure 4c, e
Experimental: At the end of the study, the GPs were euthanized, the hearts excised and perfused on a Langendorff apparatus with Tyrode’s solution containing (in mM): NaCl (130), KCl (4), MgSO4 (1.2), NaHCO3 (25), Glucose (5), CaCl2 (1.25), and Mannitol (45), and gassed with 95% O2 and 5% CO2, with a pH of 7.0, at 37 °C. The hearts were placed in a custom-designed chamber to subdue the motion artifacts, along with a 15 min blebbistatin (5 µM) in perfusate to minimize the contractions. Bolus injections of voltage (RH237, 25 µL of 2 mg/mL dimethyl sulfoxide (DMSO)) and Ca^2+-indicator dye (Rhod-2/AM, 200 µL of 2 mg/mL DMSO) were injected in the air trap above the aortic cannula. Fluorescence from the epicardium was collected with a camera lens, split with a 570 nm dichroic mirror and focused on two CMOS cameras (Sci-Media UltimaOne, Costa Mesa, CA, USA) capturing the fluorescence emission at 570–595 nm for the cytosolic Ca^2+ and 610–750 nm wavelengths for the voltage, as described in detail previously [33]. After resting sinus rhythm image acquisition, the hearts were paced at 250 ms with programmed stimulation to measure and compare the conduction velocity and transient duration (90%) of various treatment groups.
Adult male GPs (250–350 g) were injected intraperitoneally with amiodarone (80 mg/kg; n = 4) daily for 7 days, CTP–amio (26.3 mg/kg; n = 4) for 5 days, or CTP alone (17.8 mg/kg; n = 4) for 5 days and compared to vehicle-only injected GPs (n = 10). At the end of the injection period, the GPs were euthanized, and their hearts were excised and perfused in a Langendorf apparatus. The hearts were labeled with a voltage-sensitive dye (RH 237) and a Ca^2+ indicator (Rhod-2/AM) with a bolus injection in the perfusate in the air trap above the aortic cannula. Fluorescence images of the heart were focused on 2 CMOS cameras, one to detect voltage and the other intracellular free Ca^2+. The heart rate, action potentials (APs), and intracellular free-Ca^2+ transients (CaT) were measured from 10,000 pixels of the voltage and Ca^2+ CMOS cameras (Supplemental Figure S1). Durations of the APs and CaTs were calculated from the first derivative of the rise of the signals to their recovery to 90% of the baseline.

[1] = system: guinea pig hearts (gene expression); assay: RNA sequencing of treated hearts versus control hearts; format: in vivo; conditions: CTP-treated hearts versus controls
Experimental: Libraries were generated with the Illumina Stranded mRNA Library Prep kit (Illumina: 20040534, San Diego, CA, USA), according to the manufacturer’s instructions. RNA was assessed for quality using a Total RNA 15 nt kit (Agilent: DNF-471-33) on an Advanced Analytical 5300 Fragment Analyzer. The RNA concentration was quantified with a Qubit BR RNA assay kit (Invitrogen: Q10211) on a Qubit 4 (Invitrogen: Q33238). Briefly, 50 ng of input RNA was used for each sample. Following adapter ligation, 15 cycles of indexing PCR were completed, using IDT for Illumina RNA UD Indexes (Illumina: 20040553). Library assessment and quantification were performed using Qubit 1x HS DNA (Invitrogen: Q33231) on a Qubit 4 fluorometer and a HS NGS Fragment kit (Agilent: DNF-474-1000). […] The pooled library was loaded at 750 pM, and sequencing was carried out with read lengths of 2 × 101 bp, with an average of ~40 million reads per sample. […]
The raw RNA sequencing (RNA-Seq) paired-end reads for the guinea pig (GP) samples were processed through the Mayo RNA-Seq bioinformatics pipeline, RapMap version 1.0.0. Briefly, the raw reads were trimmed with a base quality cutoff of Phred score Q30 using Trimmomatic. […]
Using the gene-level counts from RapMap, genes differentially expressed between the control and treated groups were assessed using the bioinformatics package edgeR 2.6.2 [37]. […]

mice = conditions: biodistribution studies; cited from earlier work
From the text: The ability of cationic or hydrophobic cell-penetrating peptides to transduce a wide variety of tissue types in vivo limits their clinical utility because of their lack of cell specificity, leading to a higher chance of off-target adverse side effects. Phage display using libraries of various lengths and various bacteriophage strains have been successfully utilized to identify tissue-specific penetrating peptides. In our prior work, we employed a combinatorial in vitro and in vivo M13 phage display methodology to identify a 12-amino-acid, synthetic, mildly bas ...

Compound | heart rate during sinus rhythm compared to control hearts (guinea pig hearts; Figure 4a) | conduction velocity (CV) of the APs and CaT compared to control hearts (guinea pig hearts; Figure 4b, d) | calcium transients compared to the controls (guinea pig hearts; Rhod-2/AM fluorescence) | AP and CaT durations compared to control hearts (guinea pig hearts) | expression of α-adrenergic receptors [1] | expression of β-adrenergic receptors [1] | crossing of the blood–brain barrier (mice) | route of excretion (mice)
CCCCc1oc2ccccc2c1C(=O)c1cc(I)c(OCCN(CC)CC)c(I)c1 [amiodarone, Amiodarone hydrochloride] | significantly decreased | decreased | significantly decreased | increased |  |  |  | 
NH2-APWHLSSQYSRT-COOH (H-APWHLSSQYSRT-OH) [CTP] |  |  |  | decreased | upregulation | downregulation | does not cross | predominantly by a renal followed by a hepatobiliary mechanism

Source: paper PMC10459552, “Cardiomyocyte-Targeting Peptide to Deliver Amiodarone” (Pharmaceutics, 2023)
